Structures are written as SMILES. pKi: −log10 of the molar value. Like-named read-outs stand apart in the source and are kept apart here.

For one test, the target named is T1, PPAR-α (Homo sapiens, UniProt Q07869).
T1 sequence (Q07869 1-468): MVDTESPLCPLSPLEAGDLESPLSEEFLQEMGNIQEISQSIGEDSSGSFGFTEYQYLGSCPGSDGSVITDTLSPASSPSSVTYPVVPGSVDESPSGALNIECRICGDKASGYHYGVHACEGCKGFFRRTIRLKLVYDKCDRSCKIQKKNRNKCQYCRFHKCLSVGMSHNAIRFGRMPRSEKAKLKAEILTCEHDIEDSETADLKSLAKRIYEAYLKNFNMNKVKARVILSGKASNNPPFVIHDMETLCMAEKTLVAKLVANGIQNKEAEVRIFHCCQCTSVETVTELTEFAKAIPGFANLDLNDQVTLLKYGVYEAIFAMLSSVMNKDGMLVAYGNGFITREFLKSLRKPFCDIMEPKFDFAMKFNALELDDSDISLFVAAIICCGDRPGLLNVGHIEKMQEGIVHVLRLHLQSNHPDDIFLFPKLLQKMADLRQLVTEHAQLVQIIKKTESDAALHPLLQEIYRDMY
The test can be described thus: Scintillation Proximity Assay (SPA), displacement of 3H labeled GW2331. The class given is binding. The settings on record: 3H GW2331 displacement, read-out: PPAR-alpha Ki.

The target of the next test is T2, PPAR-γ (Homo sapiens, UniProt P37231).
T2 sequence (P37231 1-505): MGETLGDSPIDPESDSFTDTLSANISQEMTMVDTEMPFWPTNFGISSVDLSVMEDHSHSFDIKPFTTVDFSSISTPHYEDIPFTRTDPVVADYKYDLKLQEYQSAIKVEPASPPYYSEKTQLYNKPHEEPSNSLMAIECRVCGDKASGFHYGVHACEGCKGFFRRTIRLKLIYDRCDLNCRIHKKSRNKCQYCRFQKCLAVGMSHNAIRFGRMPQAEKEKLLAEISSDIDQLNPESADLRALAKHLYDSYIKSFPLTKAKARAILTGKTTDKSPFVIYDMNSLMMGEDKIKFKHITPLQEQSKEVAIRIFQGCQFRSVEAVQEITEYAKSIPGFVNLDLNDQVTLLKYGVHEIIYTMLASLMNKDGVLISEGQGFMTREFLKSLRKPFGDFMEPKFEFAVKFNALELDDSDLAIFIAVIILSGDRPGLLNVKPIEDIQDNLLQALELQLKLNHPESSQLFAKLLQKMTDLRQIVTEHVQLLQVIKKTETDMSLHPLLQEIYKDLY
The test is described as follows: Scintillation Proximity Assay (SPA), displacement of 3H labeled darglitazone. The class given is binding. The settings on record: 3H darglitazone displacement.

Text for PPAR-α: Scintillatian Proximity Assay (SPA) Assays
In the SPA assay, 3H labeled darglitazone (for PPAR-γ) or GW2331 (for PPAR-α) is bound to the PPAR protein captured on SPA polylysine beads and generates radioactive count signal that can be detected by TopCounts (Packard). The PPAR-bound 3H labeled ligand can be displaced by an unlabeled compound. The Ki of the compound can be then determined by the extent of displacement at various compound concentrations. Reagents: • SPA polylysine beads, which can be purchased from Amersham Bioscience. • H labeled Darglitazone for PPAR-γ. • H labeled GW2331 for PPAR-α. • PPAR proteins. • Buffer—PBS, 10% glycerol, 14 mM beta-mercaptoethanol.

Turning to `Cc1oc(-c2ccccc2)nc1CCOc1ccc(CC2(C(=O)O)CCCCO2)nc1` (stereo not drawn) [Example C-57], the negative-log Ki (pKi) (as a rule, the Ki on a negative log10 scale, so that one unit is a factor of ten) was 5.74 on PPAR-α and 5.96 on PPAR-γ (read-out: PPAR-gamma Ki).
On to `Cc1oc(-c2ccc(C#N)cc2)nc1CCOc1ccc(CC2(C(=O)O)CCCO2)cn1` (stereo not drawn) [Example C-61], for which the pKi was 6.62 at PPAR-α and 6.51 on PPAR-γ (read-out: PPAR-gamma Ki).
Take `CN(CCOc1ccc(CC2(C(=O)O)CCCO2)cn1)c1nc2ccccc2o1` (stereo not drawn) [Example C-69]: the figures for the negative-log Ki (pKi) at PPAR-α and on PPAR-γ (read-out: PPAR-gamma Ki) were 5.60 and 5.96, respectively.
The matching figures for `Cc1oc(-c2ccccc2)nc1CCCc1ccc(CC2(C(=O)O)CCCO2)cn1` (stereo not drawn) [Example C-74]: 6.05 and 6.19.
The matching figures for `Cc1oc(-c2ccccc2)nc1CCOc1ncc(CC2(C(=O)O)CCCO2)cn1` (stereo not drawn) [Example C-76]: 5.14 and 5.64.
Regarding `Cc1oc(-c2ccccc2)nc1CCOc1cnc(CC2(C(=O)O)CCCO2)cn1` (stereo not drawn) [Example C-77], the pKi on PPAR-α was 5.54; at PPAR-γ (PPAR-gamma Ki), 6.82.
As to `Cc1oc(-c2ccccc2)nc1CCOc1ccc(CC2(C(=O)O)CCCO2)cc1` (stereo not drawn) [Example C-78], the pKi is 7.82 on PPAR-α and 8.22 at PPAR-γ (read-out: PPAR-gamma Ki).
As for `Cc1oc(-c2cccc(N(C)C)c2)nc1CCOc1ccc(CC2(C(=O)O)CCCO2)cc1` (stereo not drawn) [Example C-79], the pKi is 7.82 at PPAR-α and 8.15 on PPAR-γ (read-out: PPAR-gamma Ki).
For `Cc1oc(-c2ccc(C#N)cc2)nc1CCOc1ccc(CC2(C(=O)O)CCCO2)cc1` (stereo not drawn) [Example C-80], the pKi is 7.28 on PPAR-α and 7.21 at PPAR-γ (read-out: PPAR-gamma Ki).
For the compound `Cc1oc(-c2ccc(C(N)=O)cc2)nc1CCOc1ccc(CC2(C(=O)O)CCCO2)cc1` (stereo not drawn) [Example C-81], the negative logarithm of the Ki (pKi) at PPAR-α was 6.12; on PPAR-γ (read-out: PPAR-gamma Ki) it was 7.82.
As for `Cc1ccc(-c2nc(CCOc3ccc(CC4(C(=O)O)CCCO4)cc3)c(C)o2)cc1` (stereo not drawn) [Example C-83], the negative-log Ki (pKi) is 8.40 at PPAR-α and 8.10 at PPAR-γ (read-out: PPAR-gamma Ki).
Consider `COc1ccc(-c2nc(CCOc3ccc(CC4(C(=O)O)CCCO4)cc3)c(C)o2)cc1` (stereo not drawn) [Example C-84], for which the pKi at PPAR-α is 7.19; at PPAR-γ (read-out: PPAR-gamma Ki), 7.68.
`COc1cccc(-c2nc(CCOc3ccc(CC4(C(=O)O)CCCO4)cc3)c(C)o2)c1` (stereo not drawn) [Example C-85]: the results for the pKi on PPAR-α and on PPAR-γ (read-out: PPAR-gamma Ki) were 7.89 and 8.40, respectively.
`Cc1oc(-c2cccc(Cl)c2)nc1CCOc1ccc(CC2(C(=O)O)CCCO2)cc1` (stereo not drawn) [Example C-86]: the negative-log Ki (pKi) was 7.89 on PPAR-α and 8.30 at PPAR-γ (read-out: PPAR-gamma Ki).
The matching figures for `Cc1oc(-c2cccc(C(F)(F)F)c2)nc1CCOc1ccc(CC2(C(=O)O)CCCO2)cc1` (stereo not drawn) [Example C-87]: 7.60 and 7.92.
Consider `Cc1cccc(-c2nc(CCOc3ccc(CC4(C(=O)O)CCCO4)cc3)c(C)o2)c1` (stereo not drawn) [Example C-89], for which the pKi on PPAR-α is 7.52; at PPAR-γ (read-out: PPAR-gamma Ki) it was 7.40.
Consider `Cc1oc(-c2ccc(C(F)(F)F)cc2)nc1CCOc1ccc(CC2(C(=O)O)CCCO2)cc1` (stereo not drawn) [Example C-90], for which the pKi on PPAR-α was 6.96; on PPAR-γ (read-out: PPAR-gamma Ki) it was 7.77.
`Cc1oc(-c2ccccc2)nc1CCOc1ccc2cc(CC3(C(=O)O)CCCO3)ccc2c1` (stereo not drawn) [Example C-91]: the pKi was 5.74 on PPAR-α and 6.41 on PPAR-γ (read-out: PPAR-gamma Ki).
On to `Cc1oc(-c2ccccc2)nc1CCCOc1ccc2cc(CC3(C(=O)O)CCCO3)ccc2c1` (stereo not drawn) [Example C-92], for which the pKi on PPAR-α was 5.55; at PPAR-γ (read-out: PPAR-gamma Ki) it was 5.96.
The corresponding values for `Cc1oc(-c2ccccc2)nc1COc1ccc2cc(CC3(C(=O)O)CCCO3)ccc2c1` (stereo not drawn) [Example C-93] are 6.52 and 7.96.
As to `Cc1oc(-c2ccccc2)nc1CCOc1ccc(CC2(c3nnn[nH]3)CCCO2)cn1` (stereo not drawn) [Example C-95, 2-[2-(5-Methyl-2-phenyl-oxazol-4-yl)-ethoxy]-5-[2-(1H-tetrazol-5-yl)-tetrahydro-furan-2-ylmethyl]-pyridine], the values for the pKi at PPAR-α and at PPAR-γ (read-out: PPAR-gamma Ki) were 5.07 and 6.01, respectively.
In the case of `COC(Cc1ccc(OCCc2nc(-c3ccc(C#N)cc3)oc2C)nc1)C(=O)O` [Example D-02], the negative logarithm of the Ki (pKi) at PPAR-α was 6.54; on PPAR-γ (read-out: PPAR-gamma Ki), 6.34.
Consider `COC(Cc1ccc(OCCc2nc(-c3cccc(C)c3)oc2C)nc1)C(=O)O` [Example D-03], for which the negative logarithm of the Ki (pKi) at PPAR-α was 6.52; at PPAR-γ (read-out: PPAR-gamma Ki), 7.96.
The matching figures for `COC(Cc1ccc(OCCc2nc(-c3ccc(Cl)cc3)oc2C)nc1)C(=O)O` [Example D-04]: 6.54 and 6.36.
In the case of `COc1ccc(-c2nc(CCOc3ccc(CC(OC)C(=O)O)cn3)c(C)o2)cc1` [Example D-07], the pKi was 6.49 on PPAR-α and 7.77 at PPAR-γ (read-out: PPAR-gamma Ki).
In the case of `COc1cccc(-c2nc(CCOc3ccc(CC(OC)C(=O)O)cn3)c(C)o2)c1` [Example D-08], the negative logarithm of the Ki (pKi) was 7.82 on PPAR-α and 8.70 on PPAR-γ (read-out: PPAR-gamma Ki).
For the compound `COC(Cc1ccc(OCCc2nc(-c3ccc(C(F)(F)F)cc3)oc2C)nc1)C(=O)O` [Example D-09], the negative-log Ki (pKi) was 7.30 on PPAR-α and 7.21 on PPAR-γ (read-out: PPAR-gamma Ki).
In the case of `COC(Cc1ccc(OCCc2nc(-c3ccc(C)cc3)oc2C)nc1)C(=O)O` [Example D-10], the pKi on PPAR-α is 7.48; on PPAR-γ (read-out: PPAR-gamma Ki) it was 7.72.
Consider `CCS(=O)(=O)Oc1ccc(CCOc2ccc(CC(OC)C(=O)O)cn2)cc1` [Example D-11], for which the negative-log Ki (pKi) is 5.29 on PPAR-α and 5.21 at PPAR-γ (read-out: PPAR-gamma Ki).
The matching figures for `COC(Cc1ccc(OCCc2ccc(Oc3ccccc3)cc2)nc1)C(=O)O` [Example D-13]: 6.72 and 6.44.
As to `CCOC(Cc1ccc(OCCc2ccc(Oc3ccccc3)cc2)nc1)C(=O)O` [Example D-14], the pKi is 5.59 on PPAR-α and 5.82 at PPAR-γ (read-out: PPAR-gamma Ki).
With `CCOC(Cc1ccc(OCCc2nc(-c3ccc(Cl)cc3)oc2C)nc1)C(=O)O` [Example D-15], the pKi on PPAR-α is 6.66; at PPAR-γ (read-out: PPAR-gamma Ki), 6.46.
Turning to `CCOC(Cc1ccc(OCCc2ccc(OS(=O)(=O)c3ccccc3)cc2)nc1)C(=O)O` [Example D-17], the negative-log Ki (pKi) is 6.04 on PPAR-α and 7.51 at PPAR-γ (read-out: PPAR-gamma Ki).
`CCOC(Cc1ccc(OCCc2ccc(OS(=O)(=O)CC)cc2)nc1)C(=O)O` [Example D-18]: the negative logarithm of the Ki (pKi) on PPAR-α is 6.21; on PPAR-γ (read-out: PPAR-gamma Ki), 6.35.
For the compound `CCOC(Cc1ccc(OCCc2ccc(OS(C)(=O)=O)cc2)nc1)C(=O)O` [Example D-19], the negative logarithm of the Ki (pKi) is 5.19 at PPAR-α and 5.77 at PPAR-γ (read-out: PPAR-gamma Ki).
As for `CCOC(Cc1ccc(OCCc2ccc(OC(F)(F)F)cc2)nc1)C(=O)O` [Example D-20], the pKi was 6.08 on PPAR-α and 6.32 at PPAR-γ (read-out: PPAR-gamma Ki).
The matching figures for `CCOc1ccc(CCOc2ccc(CC(OCC)C(=O)O)cn2)cc1` [Example D-21]: 5.00 and 5.68.
Turning to `COC(C)(Cc1ccc(OCCCc2nc(-c3ccccc3)oc2C)cn1)C(=O)O` [Example D-28], the pKi on PPAR-α is 5.32; on PPAR-γ (read-out: PPAR-gamma Ki), 5.80.
Turning to `COC(C)(Cc1ccc(OCCc2nc(-c3ccccc3)oc2C)cn1)C(=O)O` [Example D-29], the negative-log Ki (pKi) was 6.10 on PPAR-α and 6.40 at PPAR-γ (read-out: PPAR-gamma Ki).
As to `COC(C)(Cc1ccc(OCCc2nc(-c3ccc(C(F)(F)F)cc3)oc2C)nc1)C(=O)O` [Example D-31], the values for the negative-log Ki (pKi) on PPAR-α and at PPAR-γ (read-out: PPAR-gamma Ki) were 7.06 and 6.00, respectively.
`COC(C)(Cc1ccc(OCCc2nc(C3CCCCC3)oc2C)nc1)C(=O)O` [Example D-32]: the negative-log Ki (pKi) is 7.23 at PPAR-α and 5.82 on PPAR-γ (read-out: PPAR-gamma Ki).
Turning to `COC(C)(Cc1ccc(OCCc2nc(-c3ccccc3)sc2C)nc1)C(=O)O` [Example D-33], the negative logarithm of the Ki (pKi) was 6.26 on PPAR-α and 6.16 at PPAR-γ (read-out: PPAR-gamma Ki).

The values are drawn from US20050234066A1, “Alpha substituted carboxylic acids” (Agouron Pharmaceuticals, Inc., priority 2004, published 2005).
